Structures are written as SMILES. pIC50: −log10 of the molar value.

As usually defined, the pIC50 is the negative decadic logarithm of the IC50, by convention in mol/L.

The assay relates to PC3 cells. Kind of assay: NAMPT Cell Proliferation Assay (Cell Titer Glo; also performed in the presence of 0.3 mM nicotinamide mononucleotide). The format is cell-based. The following applies: Homo sapiens, PC-3, 120 h, 5 days incubation, cell viability by Cell Titer Glo. The gist of the method:
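Seed PC3 at 500 cells/well (RPMI, 10% HI-FBS), attach overnight; add compound, 10-fold series 10 μM → 1×10^−5 μM; incubate 5 d, 37° C/5% CO2; luminescent viability readout; fit % inhibition sigmoidally for IC50.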
Regarding `O=C(Nc1ccc(CC2CCN(C(=O)c3ccn[nH]3)CC2)cc1)C1CN(c2cccnn2)C1` [Example 938, N-(4-{[1-(1H-pyrazol-5-ylcarbonyl)piperidin-4-yl]methyl}phenyl)-1-(pyridazin-3-yl)azetidine-3-carboxamide], the pIC50 is 8.06.

On to `Cc1ccc(C(=O)N2CCC(Cc3ccc(NC(=O)C4CN(c5cccnn5)C4)cc3)CC2)cn1` [Example 939, N-[4-({1-[(6-methylpyridin-3-yl)carbonyl]piperidin-4-yl}methyl)phenyl]-1-(pyridazin-3-yl)azetidine-3-carboxamide], for which the pIC50 was 8.53.

As to `Cc1ccsc1C(=O)N1CCC(Cc2ccc(NC(=O)C3CN(c4cccnn4)C3)cc2)CC1` [Example 940, N-[4-({1-[(3-methylthiophen-2-yl)carbonyl]piperidin-4-yl}methyl)phenyl]-1-(pyridazin-3-yl)azetidine-3-carboxamide], the pIC50 is 8.71. Take `C#CCCC(=O)N1CCC(Cc2ccc(NC(=O)C3CN(c4cccnn4)C3)cc2)CC1` [Example 941, N-(4-{[1-(pent-4-ynoyl)piperidin-4-yl]methyl}phenyl)-1-(pyridazin-3-yl)azetidine-3-carboxamide]: the negative-log IC50 (pIC50) is 8.68. In the case of `O=C(Nc1ccc(CC2CCN(C(=O)c3ccsc3)CC2)cc1)C1CN(c2cccnn2)C1` [Example 942, 1-(pyridazin-3-yl)-N-(4-{[1-(thiophen-3-ylcarbonyl)piperidin-4-yl]methyl}phenyl)azetidine-3-carboxamide] it was 8.56; in that of `COCC(=O)N1CCC(Cc2ccc(NC(=O)C3CN(c4cccnn4)C3)cc2)CC1` [Example 943, N-(4-{[1-(methoxyacetyl)piperidin-4-yl]methyl}phenyl)-1-(pyridazin-3-yl)azetidine-3-carboxamide], 8.12; in that of `O=C(Nc1ccc(CC2CCN(C(=O)C3CCCO3)CC2)cc1)C1CN(c2cccnn2)C1` (stereo not shown) [Example 944, 1-(pyridazin-3-yl)-N-(4-{[1-(tetrahydrofuran-2-ylcarbonyl)piperidin-4-yl]methyl}phenyl)azetidine-3-carboxamide], 8.15. Regarding `COCCOCC(=O)N1CCC(Cc2ccc(NC(=O)C3CN(c4cccnn4)C3)cc2)CC1` [Example 945, N-[4-({1-[(2-methoxyethoxy)acetyl]piperidin-4-yl}methyl)phenyl]-1-(pyridazin-3-yl)azetidine-3-carboxamide], the pIC50 is 8.35. For the compound `CCOCC(=O)N1CCC(Cc2ccc(NC(=O)C3CN(c4cccnn4)C3)cc2)CC1` [Example 946, N-(4-{[1-(ethoxyacetyl)piperidin-4-yl]methyl}phenyl)-1-(pyridazin-3-yl)azetidine-3-carboxamide], the pIC50 is 8.54.

For `O=C(Nc1ccc(CC2CCN(C(=O)c3cccs3)CC2)cc1)C1CN(c2cccnn2)C1` [Example 947, 1-(pyridazin-3-yl)-N-(4-{[1-(thiophen-2-ylcarbonyl)piperidin-4-yl]methyl}phenyl)azetidine-3-carboxamide], the negative logarithm of the IC50 (pIC50) is 8.59. In the case of `CCCCCC(=O)N1CCC(Cc2ccc(NC(=O)C3CN(c4cccnn4)C3)cc2)CC1` [Example 948, N-{4-[(1-hexanoylpiperidin-4-yl)methyl]phenyl}-1-(pyridazin-3-yl)azetidine-3-carboxamide] it was 8.65; in that of `Cn1cccc1C(=O)N1CCC(Cc2ccc(NC(=O)C3CN(c4cccnn4)C3)cc2)CC1` [Example 949, N-[4-({1-[(1-methyl-1H-pyrrol-2-yl)carbonyl]piperidin-4-yl}methyl)phenyl]-1-(pyridazin-3-yl)azetidine-3-carboxamide], 8.23. Take `C=CCC(=O)N1CCC(Cc2ccc(NC(=O)C3CN(c4cccnn4)C3)cc2)CC1` [Example 950, N-(4-{[1-(but-3-enoyl)piperidin-4-yl]methyl}phenyl)-1-(pyridazin-3-yl)azetidine-3-carboxamide]: the negative-log IC50 (pIC50) was 8.22. Regarding `O=C(Nc1ccc(CC2CCN(C(=O)c3nccs3)CC2)cc1)C1CN(c2cccnn2)C1` [Example 951, 1-(pyridazin-3-yl)-N-(4-{[1-(1,3-thiazol-2-ylcarbonyl)piperidin-4-yl]methyl}phenyl)azetidine-3-carboxamide], the pIC50 is 8.56. As for `O=C(Nc1ccc(CC2CCN(C(=O)c3ccco3)CC2)cc1)C1CN(c2cccnn2)C1` [Example 952, N-(4-{[1-(furan-2-ylcarbonyl)piperidin-4-yl]methyl}phenyl)-1-(pyridazin-3-yl)azetidine-3-carboxamide], the negative-log IC50 (pIC50) is 8.66.

As to `O=C(Nc1ccc(CC2CCN(C(=O)c3ccno3)CC2)cc1)C1CN(c2cccnn2)C1` [Example 953, N-(4-{[1-(1,2-oxazol-5-ylcarbonyl)piperidin-4-yl]methyl}phenyl)-1-(pyridazin-3-yl)azetidine-3-carboxamide], the pIC50 was 8.48. For the compound `O=C(Nc1ccc(CC2CCN(C(=O)c3ccccn3)CC2)cc1)C1CN(c2cccnn2)C1` [Example 954, 1-(pyridazin-3-yl)-N-(4-{[1-(pyridin-2-ylcarbonyl)piperidin-4-yl]methyl}phenyl)azetidine-3-carboxamide], the pIC50 is 8.20. In the case of `O=C(Nc1ccc(CC2CCN(C(=O)c3ccoc3)CC2)cc1)C1CN(c2cccnn2)C1` [Example 955, N-(4-{[1-(furan-3-ylcarbonyl)piperidin-4-yl]methyl}phenyl)-1-(pyridazin-3-yl)azetidine-3-carboxamide] it was 8.22; in that of `O=C(Nc1ccc(CC2CCN(C(=O)CC3CC3)CC2)cc1)C1CN(c2cccnn2)C1` [Example 956, N-(4-{[1-(cyclopropylacetyl)piperidin-4-yl]methyl}phenyl)-1-(pyridazin-3-yl)azetidine-3-carboxamide], 8.19; in that of `CCC(C)C(=O)N1CCC(Cc2ccc(NC(=O)C3CN(c4cccnn4)C3)cc2)CC1` (stereo not shown) [Example 957, N-(4-{[1-(2-methylbutanoyl)piperidin-4-yl]methyl}phenyl)-1-(pyridazin-3-yl)azetidine-3-carboxamide], 8.71.

Turning to `CCC(=O)N1CCC(Cc2ccc(NC(=O)C3CN(c4cccnn4)C3)cc2)CC1` [Example 958, N-{4-[(1-propanoylpiperidin-4-yl)methyl]phenyl}-1-(pyridazin-3-yl)azetidine-3-carboxamide], the pIC50 was 8.58.

In the case of `CCCC(=O)N1CCC(Cc2ccc(NC(=O)C3CN(c4cccnn4)C3)cc2)CC1` [Example 959, N-{4-[(1-butanoylpiperidin-4-yl)methyl]phenyl}-1-(pyridazin-3-yl)azetidine-3-carboxamide], the pIC50 is 8.63. Consider `O=C(Nc1ccc(CC2CCN(C(=O)C3CCC3)CC2)cc1)C1CN(c2cccnn2)C1` [Example 960, N-(4-{[1-(cyclobutylcarbonyl)piperidin-4-yl]methyl}phenyl)-1-(pyridazin-3-yl)azetidine-3-carboxamide], for which the negative logarithm of the IC50 (pIC50) is 8.54.

Regarding `CCCCC(=O)N1CCC(Cc2ccc(NC(=O)C3CN(c4cccnn4)C3)cc2)CC1` [Example 961, N-{4-[(1-pentanoylpiperidin-4-yl)methyl]phenyl}-1-(pyridazin-3-yl)azetidine-3-carboxamide], the negative-log IC50 (pIC50) was 8.25. In the case of `O=C(Nc1ccc(CC2CCN(C(=O)CC3CCCC3)CC2)cc1)C1CN(c2cccnn2)C1` [Example 962, N-(4-{[1-(cyclopentylacetyl)piperidin-4-yl]methyl}phenyl)-1-(pyridazin-3-yl)azetidine-3-carboxamide], the pIC50 is 8.62. Consider `Cc1ccccc1C(=O)N1CCC(Cc2ccc(NC(=O)C3CN(c4cccnn4)C3)cc2)CC1` [Example 963, N-(4-{[1-(2-methylbenzoyl)piperidin-4-yl]methyl}phenyl)-1-(pyridazin-3-yl)azetidine-3-carboxamide], for which the pIC50 was 8.67. In the case of `CCC(C)CC(=O)N1CCC(Cc2ccc(NC(=O)C3CN(c4cccnn4)C3)cc2)CC1` (stereo not shown) [Example 964, N-(4-{[1-(3-methylpentanoyl)piperidin-4-yl]methyl}phenyl)-1-(pyridazin-3-yl)azetidine-3-carboxamide] it was 8.74; in that of `O=C(Nc1ccc(CC2CCN(C(=O)C3CCCCC3)CC2)cc1)C1CN(c2cccnn2)C1` [Example 965, N-(4-{[1-(cyclohexylcarbonyl)piperidin-4-yl]methyl}phenyl)-1-(pyridazin-3-yl)azetidine-3-carboxamide], 8.59; in that of `CC(C)CC(=O)N1CCC(Cc2ccc(NC(=O)C3CN(c4cccnn4)C3)cc2)CC1` [Example 966, N-(4-{[1-(3-methylbutanoyl)piperidin-4-yl]methyl}phenyl)-1-(pyridazin-3-yl)azetidine-3-carboxamide], 8.49. Regarding `O=C(Nc1ccc(CC2CCN(C(=O)C3CC3)CC2)cc1)C1CN(c2cccnn2)C1` [Example 967, N-(4-{[1-(cyclopropylcarbonyl)piperidin-4-yl]methyl}phenyl)-1-(pyridazin-3-yl)azetidine-3-carboxamide], the pIC50 was 8.52. In the case of `O=C(Nc1ccc(CC2CCN(C(=O)CC(F)(F)F)CC2)cc1)C1CN(c2cccnn2)C1` [Example 968, 1-(pyridazin-3-yl)-N-(4-{[1-(3,3,3-trifluoropropanoyl)piperidin-4-yl]methyl}phenyl)azetidine-3-carboxamide] it was 8.43. On to `Cc1ccnnc1N1CC(C(=O)Nc2ccc(C3CCN(C(=O)CC(C)(C)C)CC3)cc2)C1` [Example 969, N-{4-[1-(3,3-dimethylbutanoyl)piperidin-4-yl]phenyl}-1-(4-methylpyridazin-3-yl)azetidine-3-carboxamide], for which the negative-log IC50 (pIC50) was 9.46. Regarding `CC(C)(C)CC(=O)N1CCC(n2cc(NC(=O)C3CN(c4cccnn4)C3)cn2)CC1` [Example 970, N-{1-[1-(3,3-dimethylbutanoyl)piperidin-4-yl]-1H-pyrazol-4-yl}-1-(pyridazin-3-yl)azetidine-3-carboxamide], the negative-log IC50 (pIC50) is 7.55.

With `O=C(Nc1cnn(C2CCN(C(=O)c3ccccc3F)CC2)c1)C1CN(c2cccnn2)C1` [Example 971, N-{1-[1-(2-fluorobenzoyl)piperidin-4-yl]-1H-pyrazol-4-yl}-1-(pyridazin-3-yl)azetidine-3-carboxamide], the pIC50 is 7.15.

Values taken from US8975398B2, “NAMPT inhibitors” (AbbVie Inc., priority 2012, dated 2015).
